Values of other authors as cited in patent US7479499B2 (Celgene Corporation, priority 2000, dated 2009).

Tests used:
[1] = tested on: patients with metastatic colorectal cancer; conditions: irinotecan monotherapy
[2] = tested on: metastatic colorectal cancer patients
[3] = second line treatment of colorectal cancer after 5FU

CCc1c2c(nc3ccc(OC(=O)N4CCC(N5CCCCC5)CC4)cc13)-c1cc3c(c(=O)n1C2)COC(=O)[C@]3(O)CC [Irinotecan, (4S)-4,11-diethyl-4-hydroxy-9-[(4-piperidino-piperidino)carbonyl-oxy]1H-pyranol-[3′,4′:6,7]indolizinol[1,2-b]quinoline-3,14-(4H,12H)dione]
Expected (%) Grade 1-4 Abdominal colic/pain ([1]; abdominal colic/pain, grade 1-4): 23.7%
Expected (%) Grade 3-4 Abdominal colic/pain ([1]; abdominal colic/pain, grade 3-4): 2.3%
Expected (%) Grade 1-4 Asthenia ([1]; asthenia, grade 1-4): 75.7%
Expected (%) Grade 3-4 Asthenia ([1]; asthenia, grade 3-4): 12.2%
Expected (%) Grade 1-4 Constipation ([1]; constipation, grade 1-4): 29.9%
Expected (%) Grade 3-4 Constipation ([1]; constipation, grade 3-4): 2.0%
Expected (%) Grade 1-4 Diarrhea (Late) ([1]; late diarrhea, grade 1-4): 87.8%
Expected (%) Grade 3-4 Diarrhea (Late) ([1]; late diarrhea, grade 3-4): 30.6%
Expected (%) Grade 1-4 Nausea ([1]; nausea, grade 1-4): 86.2%
Expected (%) Grade 1-4 Vomiting ([1]; vomiting, grade 1-4): 66.8%
Expected (%) Grade 3-4 Vomiting ([1]; vomiting, grade 3-4): 12.5%
debilitating (Grade 3-4) late onset diarrhea, share of patients ([2]; late onset: more than 24 hours after administration): 30-40%
complete response rate [2, 3]: less than one percent
median duration of response [2, 3]: 6.4 months
overall response rates [2, 3]: less than 20%
early onset diarrhea, frequency ([2]; within 24 hours of drug administration): uncommon

O=c1[nH]cc(F)c(=O)[nH]1 [5FU, 5-fluorouracil]
complete responses ([2]; metastatic colorectal cancer): extremely rare
partial responses, share of patients ([2]; metastatic colorectal cancer): less than 25%
